How the values were obtained:
CXCR3 = CXCR3 (Macaca fascicularis, UniProt A0A2K5UV19); assay: functional cellular assay measuring calcium flux in CXCR3 transfected cells (block of CXCR3/IP-10 interaction); type: cell-based, Cyno; conditions: IP-10 induced intracellular calcium flux; Cyno-CHO cells stably expressing recombinant CXCR3 and G-alpha-16; IP-10 at EC80; read-out: IC50
In short: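 Cyno-CHO cells stably expressing CXCR3 and G-alpha-16, loaded with Ca-4 dye in HBSS/10 mM HEPES pH 7.4 with 2 mM probenecid for 1 h at 37° C. Compound (final 10 microM) preincubated 15 min at room temperature, then IP-10 at EC80 added; calcium flux read at 480/540 nm.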

[1] = test system: LDL receptor knockout model; conditions: dosed prophylactically in a LDL receptor knockout model; cited from earlier work

CXCR3, sequence (A0A2K5UV19 entry or part of it): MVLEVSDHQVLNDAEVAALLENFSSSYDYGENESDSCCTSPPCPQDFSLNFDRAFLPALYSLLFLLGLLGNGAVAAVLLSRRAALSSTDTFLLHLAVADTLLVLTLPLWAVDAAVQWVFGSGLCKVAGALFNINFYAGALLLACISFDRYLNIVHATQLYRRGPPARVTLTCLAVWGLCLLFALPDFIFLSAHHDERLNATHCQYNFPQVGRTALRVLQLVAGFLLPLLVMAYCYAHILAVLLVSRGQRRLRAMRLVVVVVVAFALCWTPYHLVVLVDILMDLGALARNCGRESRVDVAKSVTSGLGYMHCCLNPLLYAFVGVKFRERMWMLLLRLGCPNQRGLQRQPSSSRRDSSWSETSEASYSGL

Row | IC50 (CXCR3) | SMILES | atherosclerotic lesion formation [1]
1 | 12 nM | C[C@H]1CN(c2ccc(F)cc2C(=O)Nc2nc3c(s2)CN(C)CC3)CCN1C(=O)Cn1c(=O)[nH]c2ccccc21 [5-fluoro-2-{(3S)-3-methyl-4-[(2-oxo-2,3-dihydro-1H-benzimidazol-1-yl)acetyl]piperazin-1-yl}-N-(5-methyl-4,5,6,7-tetrahydro[1,3]thiazolo[5,4-c]pyridin-2-yl)benzamide] | –
2 | 17 nM | C[C@H]1CN(c2ccc(F)cc2C(=O)Nc2nc3c(s2)CN(C)CC3)CCN1C(=O)CN1CCCCC1=O [5-fluoro-2-{(3S)-3-methyl-4-[(2-oxopiperidin-1-yl)acetyl]piperazin-1-yl}-N-(5-methyl-4,5,6,7-tetrahydro[1,3]thiazolo[5,4-c]pyridin-2-yl)benzamide] | –
3 | 14 nM | CC(C)C(=O)N(C)CC(=O)N1CCN(c2ccc(F)cc2C(=O)Nc2nc3c(s2)CN(C)CC3)C[C@@H]1C [5-fluoro-2-{(3S)-3-methyl-4-[N-methyl-N-(2-methylpropanoyl)glycyl]piperazin-1-yl}-N-(5-methyl-4,5,6,7-tetrahydro[1,3]thiazolo[5,4-c]pyridin-2-yl)benzamide] | –
4 | 9 nM | COc1cc(NC(=O)c2cc(F)ccc2N2CCN(C(=O)Cn3ccc4cccnc43)[C@H](C)C2)ccn1 [5-fluoro-N-(2-methoxypyridin-4-yl)-2-[(3R)-3-methyl-4-(1H-pyrrolo[2,3-b]pyridin-1-ylacetyl)piperazin-1-yl]benzamide] | –
5 | 9 nM | COc1cc(NC(=O)c2cc(F)ccc2N2CCN(C(=O)Cn3ccc4ccncc43)[C@H](C)C2)ccn1 [5-fluoro-N-(2-methoxypyridin-4-yl)-2-[(3R)-3-methyl-4-(1H-pyrrolo[2,3-c]pyridin-1-ylacetyl)piperazin-1-yl]benzamide] | –
6 | 18 nM | COc1cc(NC(=O)c2cc(F)ccc2N2CCN(C(=O)Cn3ccc4cccnc43)[C@@H](C)C2)ccn1 [5-fluoro-N-(2-methoxypyridin-4-yl)-2-[(3S)-3-methyl-4-(1H-pyrrolo[2,3-b]pyridin-1-ylacetyl)piperazin-1-yl]benzamide] | –
7 | 6 nM | COc1cc(NC(=O)c2cc(F)ccc2N2CCN(C(=O)Cn3ccc4ccncc43)[C@@H](C)C2)ccn1 [5-fluoro-N-(2-methoxypyridin-4-yl)-2-[(3S)-3-methyl-4-(1H-pyrrolo[2,3-c]pyridin-1-ylacetyl)piperazin-1-yl]benzamide] | –
8 | 7 nM | COc1cc(NC(=O)c2cc(F)ccc2N2CCN(C(=O)CN3Cc4ccccc4C3=O)[C@H](C)C2)ccn1 [5-fluoro-N-(2-methoxypyridin-4-yl)-2-{(3R)-3-methyl-4-[(1-oxo-1,3-dihydro-2H-isoindol-2-yl)acetyl]piperazin-1-yl}benzamide] | –
9 | 8 nM | COc1cc(NC(=O)c2cc(F)ccc2N2CCN(C(=O)Cn3c(=O)[nH]c4ccccc43)[C@H](C)C2)ccn1 [5-fluoro-N-(2-methoxypyridin-4-yl)-2-{(3R)-3-methyl-4-[(2-oxo-2,3-dihydro-1H-benzimidazol-1-yl)acetyl]piperazin-1-yl}benzamide] | –
10 | 10 nM | COc1cc(NC(=O)c2cc(F)ccc2N2CCN(C(=O)CN3CCCCC3=O)[C@H](C)C2)ccn1 [5-fluoro-N-(2-methoxypyridin-4-yl)-2-{(3R)-3-methyl-4-[(2-oxopiperidin-1-yl)acetyl]piperazin-1-yl}benzamide] | –
11 | 9 nM | COc1cc(NC(=O)c2cc(F)ccc2N2CCN(C(=O)CN(C)C(=O)C(C)C)[C@H](C)C2)ccn1 [5-fluoro-N-(2-methoxypyridin-4-yl)-2-{(3R)-3-methyl-4-[N-methyl-N-(2-methylpropanoyl)glycyl]piperazin-1-yl}benzamide] | –
12 | 13 nM | COc1cc(NC(=O)c2cc(F)ccc2N2CCN(C(=O)CN3Cc4ccccc4C3=O)[C@@H](C)C2)ccn1 [5-fluoro-N-(2-methoxypyridin-4-yl)-2-{(3S)-3-methyl-4-[(1-oxo-1,3-dihydro-2H-isoindol-2-yl)acetyl]piperazin-1-yl}benzamide] | –
13 | 9 nM | COc1cc(NC(=O)c2cc(F)ccc2N2CCN(C(=O)Cn3c(=O)[nH]c4ccccc43)[C@@H](C)C2)ccn1 [5-fluoro-N-(2-methoxypyridin-4-yl)-2-{(3S)-3-methyl-4-[(2-oxo-2,3-dihydro-1H-benzimidazol-1-yl)acetyl]piperazin-1-yl}benzamide] | –
14 | 8 nM | COc1cc(NC(=O)c2cc(F)ccc2N2CCN(C(=O)CN3CCCCC3=O)[C@@H](C)C2)ccn1 [5-fluoro-N-(2-methoxypyridin-4-yl)-2-{(3S)-3-methyl-4-[(2-oxopiperidin-1-yl)acetyl]piperazin-1-yl}benzamide] | –
15 | 11 nM | COc1cc(NC(=O)c2cc(F)ccc2N2CCN(C(=O)CN(C)C(=O)C(C)C)[C@@H](C)C2)ccn1 [5-fluoro-N-(2-methoxypyridin-4-yl)-2-{(3S)-3-methyl-4-[N-methyl-N-(2-methylpropanoyl)glycyl]piperazin-1-yl}benzamide] | –
16 | 5 nM | N#Cc1ccc(-c2ccccc2N2CCN(C(=O)Cn3ccc4cccnc43)CC2)cn1 [5-{2-[4-(2-Pyrrolo[2,3-b]pyridin-1-yl-acetyl)-piperazin-1-yl]-phenyl}-pyridine-2-carbonitrile] | –
17 | 13 nM | N#Cc1ncc(-c2ccccc2N2CCN(C(=O)Cn3ccc4cccnc43)CC2)cn1 [5-{2-[4-(2-Pyrrolo[2,3-b]pyridin-1-yl-acetyl)-piperazin-1-yl]-phenyl}-pyrimidine-2-carbonitrile] | –
18 | 12 nM | COc1cc(NC(=O)c2cc(F)ccc2N2CCN(C(=O)CN(C)C(=O)c3ncoc3C)[C@H](C)C2)ccn1 [N-{2-[(2R)-4-{4-fluoro-2-[(2-methoxypyridin-4-yl)carbamoyl]phenyl}-2-methylpiperazin-1-yl]-2-oxoethyl}-N,5-dimethyl-1,3-oxazole-4-carboxamide] | –
19 | 35 nM | Cc1ocnc1C(=O)N(C)CC(=O)N1CCN(c2ccc(F)cc2C(=O)Nc2nc3c(s2)CN(C)CC3)C[C@H]1C [N-{2-[(2R)-4-{4-fluoro-2-[(5-methyl-4,5,6,7-tetrahydro[1,3]thiazolo[5,4-c]pyridin-2-yl)carbamoyl]phenyl}-2-methylpiperazin-1-yl]-2-oxoethyl}-N,5-dimethyl-1,3-oxazole-4-carboxamide] | –
20 | 11 nM | COc1cc(NC(=O)c2cc(F)ccc2N2CCN(C(=O)CN(C)C(=O)c3ncoc3C)[C@@H](C)C2)ccn1 [N-{2-[(2S)-4-{4-fluoro-2-[(2-methoxypyridin-4-yl)carbamoyl]phenyl}-2-methylpiperazin-1-yl]-2-oxoethyl}-N,5-dimethyl-1,3-oxazole-4-carboxamide] | –
21 | 21 nM | Cc1ocnc1C(=O)N(C)CC(=O)N1CCN(c2ccc(F)cc2C(=O)Nc2nc3c(s2)CN(C)CC3)C[C@@H]1C [N-{2-[(2S)-4-{4-fluoro-2-[(5-methyl-4,5,6,7-tetrahydro[1,3]thiazolo[5,4-c]pyridin-2-yl)carbamoyl]phenyl}-2-methylpiperazin-1-yl]-2-oxoethyl}-N,5-dimethyl-1,3-oxazole-4-carboxamide] | –
22 | – | CCOc1ccc(-n2c(C(C)N(Cc3cccnc3)C(=O)Cc3ccc(F)c(C(F)(F)F)c3)nc3ncccc3c2=O)cc1 (stereo not shown) [NBI-74330] | significantly attenuated atherosclerotic lesion formation

From patent US8450317B2, “CXCR3 receptor antagonists” (Boehringer Ingelheim International GmbH, priority 2009, dated 2013)
